Measured values published in US20250099596A1, “TETRAHYDRONAPHTHALENE COMPOUND, AND PREPARATION METHOD THEREFOR AND USE THEREOF IN MEDICINE” (Jiangsu Hengrui Pharmaceuticals Co., Ltd., priority 2021, published 2025).

Columns and labels:
[1] = tested on: MCF7 cells; assay: Inhibitory effects on MCF7 cell proliferation (CellTiter-Glo); assay type: cell-based; details: Homo sapiens, 144 h, 6 days incubation, read-out: IC50 (nM), inhibition of MCF7 cell proliferation
Protocol: (§1) MCF7 cells (TCHu74, National Collection of Authenticated Cell Cultures) were cultured in an MEM (GE Healthcare, SH30024.01) complete medium containing 10% fetal bovine serum. On day 1 of the experiment, MCF7 cells were seeded into a 96-well plate at a density of 3,000 cells/well using MEM containing 2% fetal bovine serum, with each well containing 135 μL of cell suspension. The plate was incubated in a 37° C., 5% CO2 cell incubator overnight. The next day, different concentrations of test compounds prepared in media were added at 15 μL/well. The final concentrations of the compounds were 9 concentration points obtained by 4-fold serial dilution from 1000 nM. A blank control containing 0.5% DMSO was set up. The plate was incubated in a 37° C., 5% CO2 cell incubator for 6 days. On day 8, the 96-well cell culture plate was taken out, and CellTiter-Glo® Luminescent Cell Viability Assay (Promega, G7573) was added at 75 μL/well. After the plate was left at room temperature for 10 min, luminescence signal readings were taken on a multilabel microplate reader (PerkinElmer, VICTOR 3). The IC50 values for the inhibitory activity of the compounds were calculated from the concentrations of the compounds and the luminescence signal readings using Graphpad Prism software.

[2] = tested on: MCF7/ERα Y537S cells; assay: Inhibitory activity on proliferation of ERα mutant-expressing MCF7 cells; assay type: cell-based; details: Homo sapiens, 144 h, 6 days incubation, CellTiter-Glo, read-out: IC50 (nM), inhibition of proliferation of ERα mutant-expressing MCF7 cells
Protocol: The objective of this experiment was to determine the inhibitory activity of the compounds of the present disclosure on the proliferation of ERα mutant-expressing MCF7 cells.
as §1, with “cells expressing the ERα Y537S mutant were constructed by lentiviral infection. MCF7/ERα Y537S cells” for “cells (TCHu74, National Collection of Authenticated Cell Cultures)”, “bovine serum and […] puromycin.” for “bovine serum.”, “experiment,” for “experiment, MCF7”, “135 µL” for “135 μL”, “75 µL/well.” for “75 μL/well.”

| Compound | IC50 [1] | IC50 [2] |
| --- | --- | --- |
| O=C1CCC(N2Cc3cc(N4CCN(CC5CCN(c6ccc([C@@H]7c8ccc(O)cc8CCC78CCCC8)cc6)CC5)CC4)ccc3C2=O)C(=O)N1 (mixture of isomers) [Example 2-1, 3-(5-(4-((1-(4-((R)-6′-Hydroxy-3′,4′-dihydro-1′H-spiro[cyclopentane-1,2′-naphthalen]-1′-yl)phenyl)piperidin-4-yl)methyl)piperazin-1-yl)-1-oxoisoindolin-2-yl)piperidine-2,6-dione] | 1.94 nM | 7.83 nM |
| O=C1CCC(N2Cc3cc(N4CCN(CC5CCN(c6ccc([C@@H]7c8ccc(O)cc8CC[C@@H]7C7CCOCC7)cc6F)CC5)CC4)ccc3C2=O)C(=O)N1 (mixture of isomers) [Example 4-1, 3-(5-(4-((1-(2-Fluoro-4-((1R,2R)-6-hydroxy-2-(tetrahydro-2H-pyran-4-yl)-1,2,3,4-tetrahydronaphthalen-1-yl)phenyl)piperidin-4-yl)methyl)piperazin-1-yl)-1-oxoisoindolin-2-yl)piperidine-2,6-dione] | 0.92 nM | 4.71 nM |
| O=C1CCC(N2Cc3nc(N4CCN(CC5CCN(c6ccc([C@@H]7c8ccc(O)cc8CCC78CCCC8)cc6)CC5)CC4)ccc3C2=O)C(=O)N1 (mixture of isomers) [Example 6, 3-(2-(4-((1-(4-((R)-6′-Hydroxy-3′,4′-dihydro-1′H-spiro[cyclopentane-1,2′-naphthalen]-1′-yl)phenyl)piperidin-4-yl)methyl)piperazin-1-yl)-5-oxo-5,7-dihydro-6H-pyrrolo[3,4-b]pyridin-6-yl)piperidine-2,6-dione] | 0.75 nM | 3.19 nM |
| O=C1CCC(N2Cc3cc(N4CCN(CC5CCN(c6ccc([C@@H]7c8ccc(O)cc8CC[C@@H]7C7CCOCC7)cc6)CC5)CC4)ccc3C2=O)C(=O)N1 (mixture of isomers) [Example 8-1, 3-(5-(4-((1-(4-((1R,2R)-6-Hydroxy-2-(tetrahydro-2H-pyran-4-yl)-1,2,3,4-tetrahydronaphthalen-1-yl)phenyl)piperidin-4-yl)methyl)piperazin-1-yl)-1-oxoisoindolin-2-yl)piperidine-2,6-dione] | 0.46 nM | 2.8 nM |
| O=C1CCC(N2Cc3cc(N4CCN(CC5CCN(c6ccc([C@@H]7c8ccc(O)cc8CC[C@@H]7C7CCC(F)(F)CC7)cc6)CC5)CC4)ccc3C2=O)C(=O)N1 (mixture of isomers) [Example 10, 3-(5-(4-((1-(4-((1R,2R)-2-(4,4-Difluorocyclohexyl)-6-hydroxy-1,2,3,4-tetrahydronaphthalen-1-yl)phenyl)piperidin-4-yl)methyl)piperazin-1-yl)-1-oxoisoindolin-2-yl)piperidine-2,6-dione] | 0.3 nM | 1.38 nM |
| O=C1CCC(N2Cc3cc(N4CCN(CC5CCN(c6ccc([C@@H]7c8ccc(O)cc8CC[C@@H]7C7CCOCC7)c(F)c6)CC5)CC4)ccc3C2=O)C(=O)N1 (mixture of isomers) [Example 12-1, 3-(5-(4-((1-(3-Fluoro-4-((1S,2R)-6-hydroxy-2-(tetrahydro-2H-pyran-4-yl)-1,2,3,4-tetrahydronaphthalen-1-yl)phenyl)piperidin-4-yl)methyl)piperazin-1-yl)-1-oxoisoindolin-2-yl)piperidine-2,6-dione] | 0.45 nM | 1.28 nM |
| O=C1CCC(N2Cc3cc(N4CCN(CC5CCN(c6ccc([C@H]7c8ccc(O)cc8CC[C@H]7C7CCOCC7)c(F)c6)CC5)CC4)ccc3C2=O)C(=O)N1 (mixture of isomers) [Example 12-2, 3-(5-(4-((1-(3-Fluoro-4-((1R,2S)-6-hydroxy-2-(tetrahydro-2H-pyran-4-yl)-1,2,3,4-tetrahydronaphthalen-1-yl)phenyl)piperidin-4-yl)methyl)piperazin-1-yl)-1-oxoisoindolin-2-yl)piperidine-2,6-dione] | 13.7 nM | 39.4 nM |
| O=C1CCC(N2Cc3cc(N4CCN(CC5CCN(c6ccc([C@@H]7c8ccc(O)cc8CC[C@@H]7C7CCCC7)cc6)CC5)CC4)ccc3C2=O)C(=O)N1 (mixture of isomers) [Example 14-1, 3-(5-(4-((1-(4-((1R,2R)-2-Cyclopentyl-6-hydroxy-1,2,3,4-tetrahydronaphthalen-1-yl)phenyl)piperidin-4-yl)methyl)piperazin-1-yl)-1-oxoisoindolin-2-yl)piperidine-2,6-dione] | 0.75 nM | 2.45 nM |
| O=C1CCC(N2Cc3cc(N4CCN(CC5CCN(c6ccc([C@@H]7c8ccc(O)cc8CC[C@@H]7C7CCCCC7)cc6)CC5)CC4)ccc3C2=O)C(=O)N1 (mixture of isomers) [Example 15-1, 3-(5-(4-((1-(4-((1R,2R)-2-Cyclohexyl-6-hydroxy-1,2,3,4-tetrahydronaphthalen-1-yl)phenyl)piperidin-4-yl)methyl)piperazin-1-yl)-1-oxoisoindolin-2-yl)piperidine-2,6-dione] | 0.46 nM | 2.18 nM |
| O=C1CCC(N2Cc3cc(N4CCN(CC5CCN(c6ccc([C@@H]7c8ccc(O)cc8CCC78CCC8)cc6)CC5)CC4)ccc3C2=O)C(=O)N1 (mixture of isomers) [Example 23-1, 3-(5-(4-((1-(4-((R)-6′-Hydroxy-3′,4′-dihydro-1′H-spiro[cyclobutane-1,2′-naphthalen]-1′-yl)phenyl)piperidin-4-yl)methyl)piperazin-1-yl)-1-oxoisoindolin-2-yl)piperidine-2,6-dione] | 2.39 nM | 7.53 nM |
| O=C1CCC(N2Cc3cc(N4CCN(CC5CCN(c6ccc([C@H]7c8ccc(O)cc8CCC78CCC8)cc6)CC5)CC4)ccc3C2=O)C(=O)N1 (mixture of isomers) [Example 23-2, 3-(5-(4-((1-(4-((S)-6′-Hydroxy-3′,4′-dihydro-1′H-spiro[cyclobutane-1,2′-naphthalen]-1′-yl)phenyl)piperidin-4-yl)methyl)piperazin-1-yl)-1-oxoisoindolin-2-yl)piperidine-2,6-dione] | 20 nM | 72.1 nM |
| CC1(C)CCc2cc(O)ccc2[C@H]1c1ccc(N2CCC(CN3CCN(c4ccc5c(c4)CN(C4CCC(=O)NC4=O)C5=O)CC3)CC2)cc1 (mixture of isomers) [Example 25-1, 3-(5-(4-((1-(4-((R)-6-Hydroxy-2,2-dimethyl-1,2,3,4-tetrahydronaphthalen-1-yl)phenyl)piperidin-4-yl)methyl)piperazin-1-yl)-1-oxoisoindolin-2-yl)piperidine-2,6-dione] | 2.46 nM | 12.9 nM |
| CC(C)C[C@H]1CCc2cc(O)ccc2[C@H]1c1ccc(N2CCC(CN3CCN(c4ccc5c(c4)CN(C4CCC(=O)NC4=O)C5=O)CC3)CC2)cc1 (mixture of isomers) [Example 41, 3-(5-(4-((1-(4-((1R,2R)-6-Hydroxy-2-isobutyl-1,2,3,4-tetrahydronaphthalen-1-yl)phenyl)piperidin-4-yl)methyl)piperazin-1-yl)-1-oxoisoindolin-2-yl)piperidine-2,6-dione] | 0.62 nM | 2.89 nM |
| O=C1CCC(N2Cc3cc(N4CCN(CC5CCN(c6ccc([C@@H]7c8ccc(O)cc8CC[C@@H]7C7CCOCC7)cc6F)CC5)CC4)ccc3C2=O)C(=O)N1 (relative stereo) [Example 3, 3-(5-(4-((1-(2-Fluoro-4-((1,2)-cis-6-hydroxy-2-(tetrahydro-2H-pyran-4-yl)-1,2,3,4-tetrahydronaphthalen-1-yl)phenyl)piperidin-4-yl)methyl)piperazin-1-yl)-1-oxoisoindolin-2-yl)piperidine-2,6-dione] | 1.56 nM | 5.79 nM |
